Experiment [1] concerns Methicillin-resistant Staphylococcus aureus MRSA (ATCC BAA-1556).
The subject of experiment [2] is Pseudomonas aeruginosa (ATCC 27883).
Experiment [3] has as its system Escherichia coli (ATCC 25922).

16 molecules from patent publication US20220289794A1, “SYNTHETIC ANTIMICROBIAL PEPTIDES” (priority 2019, published 2022) can be followed below.

Converted amounts (≈) assume the structure as drawn. Like-named read-outs stand apart in the source and are kept apart here. Non-standard residues stand in square brackets, D forms with d. Residues, ends and D or L forms follow the SMILES beside them. Bip = N[C@@H](Cc1ccc(-c2ccccc2)cc1)C(=O)O; Dip = N[C@H](C(=O)O)C(c1ccccc1)c1ccccc1

As for “c[Arg-arg-Arg-arg-PEG4-Trp-naI-naI] [IFX-051]”, in experiment [1], the “MIC MRSA ATCC BAA-1556” value came to 32 µg/mL. In the experiment with S. aureus ATCC 29213, the “MIC S. aureus ATCC 29213” value turned out to be 32 µg/mL. Besides, in experiment [2], the “MIC P. aeruginosa ATCC 27883” value turned out to be 128 µg/mL. For the same molecule, the “MIC E. coli ATCC 25922” value in experiment [3] amounted to 128 µg/mL.
For the molecule `N=C(N)NCCC[C@@H]1NC(=O)[C@H](CCCNC(=N)N)NC(=O)[C@H](CCCNC(=N)N)NC(=O)[C@H](Cc2ccc(-c3ccccc3)cc2)NC(=O)[C@H](Cc2ccc(-c3ccccc3)cc2)NC(=O)[C@H](Cc2ccc(-c3ccccc3)cc2)NC(=O)[C@H](CCCNC(=N)N)NC1=O` [IFX-007, c[Arg-Arg-Arg-Arg-Bip-Bip-Bip]] (cyclo([Bip][Bip][Bip]RRRR)), the “MIC MRSA ATCC BAA-1556” value in experiment [1] (ATCC BAA-1556) was found to be 6.2 µg/mL (≈ 4.79 µM). Further, the “MIC S. aureus ATCC 29213” value with S. aureus ATCC 29213 (ATCC 29213) was determined as 3.1 µg/mL (≈ 2.39 µM). Also, the “MIC P. aeruginosa ATCC 27883” value in experiment [2] (ATCC 27883) is 25 µg/mL (≈ 19.3 µM). In addition, the “MIC E. coli ATCC 25922” value in experiment [3] (ATCC 25922) is >100 µg/mL.
Regarding “c[Arg-Arg-Arg-Arg-5brW-5brW-5brW-5brW] [IFX-039]”, the “MIC MRSA ATCC BAA-1556” value in experiment [1] amounted to 25 µg/mL. Besides, the “MIC S. aureus ATCC 29213” value against S. aureus ATCC 29213 was 25 µg/mL. Moreover, in experiment [2], the “MIC P. aeruginosa ATCC 27883” value was >100 µg/mL. In experiment [3], the “MIC E. coli ATCC 25922” value was >100 µg/mL.
Regarding `N=C(N)NCCC[C@@H]1NC(=O)CNC(=O)CNC(=O)[C@H](Cc2c[nH]c3ccccc23)NC(=O)[C@H](Cc2c[nH]c3ccccc23)NC(=O)[C@H](Cc2c[nH]c3ccccc23)NC(=O)[C@H](Cc2c[nH]c3ccccc23)NC(=O)CNC(=O)CNC(=O)[C@H](CCCNC(=N)N)NC(=O)[C@H](CCCNC(=N)N)NC(=O)[C@H](CCCNC(=N)N)NC1=O` [IFX-044] (cyclo(GGRRRRGGWWWW)), the “MIC MRSA ATCC BAA-1556” value in experiment [1] (ATCC BAA-1556) was 25 µg/mL (≈ 15.6 µM). The “MIC S. aureus ATCC 29213” value in the experiment on S. aureus ATCC 29213 (ATCC 29213) turned out to be 25 µg/mL (≈ 15.6 µM). In experiment [2] (ATCC 27883), the “MIC P. aeruginosa ATCC 27883” value came to 50 µg/mL (≈ 31.3 µM). Further, the “MIC E. coli ATCC 25922” value in experiment [3] (ATCC 25922) was determined as 50 µg/mL (≈ 31.3 µM).
Take “c[PEG2-Arg-Arg-Arg-Arg-PEG2-Dip-Dip-Dip] [IFX-049]”: the “MIC MRSA ATCC BAA-1556” value in experiment [1] was found to be 8 µg/mL. In addition, the “MIC S. aureus ATCC 29213” value against S. aureus ATCC 29213 is 8 µg/mL. Also, the “MIC P. aeruginosa ATCC 27883” value in experiment [2] turned out to be 64 µg/mL. Besides, the “MIC E. coli ATCC 25922” value in experiment [3] was 128 µg/mL.
For `N=C(N)NCCC[C@H](NC(=O)[C@H](CCCNC(=N)N)NC(=O)[C@H](CCCNC(=N)N)NC(=O)[C@@H](N)CCCNC(=N)N)C(=O)N[C@@H](CCCNC(=N)N)C(=O)N[C@H](C(=O)N[C@H](C(=O)N[C@H](C(=O)O)C(c1ccccc1)c1ccccc1)C(c1ccccc1)c1ccccc1)C(c1ccccc1)c1ccccc1` [IFX-012-1, NH2-Arg-Arg-Arg-Arg-Arg-Dip-Dip-Dip-OH] (H-RRRRR[Dip][Dip][Dip]-OH), the “MIC MRSA ATCC BAA-1556” value in experiment [1] (ATCC BAA-1556) came out at 3.1 µg/mL (≈ 2.11 µM). Further, the “MIC S. aureus ATCC 29213” value with S. aureus ATCC 29213 (ATCC 29213) is 3.1 µg/mL (≈ 2.11 µM). Also, the “MIC P. aeruginosa ATCC 27883” value in experiment [2] (ATCC 27883) was determined as 50 µg/mL (≈ 34 µM). The “MIC E. coli ATCC 25922” value in experiment [3] (ATCC 25922) came out at 25 µg/mL (≈ 17 µM).
As to `N=C(N)NCCC[C@H](NC(=O)[C@H](CCCNC(=N)N)NC(=O)[C@@H](N)CCCNC(=N)N)C(=O)N[C@@H](Cc1ccc(-c2ccccc2)cc1)C(=O)N[C@@H](Cc1ccc(-c2ccccc2)cc1)C(=O)N[C@@H](Cc1ccc(-c2ccccc2)cc1)C(=O)O` [IFX-001-1, NH2-Arg-Arg-Arg-Bip-Bip-Bip-OH] (H-RRR[Bip][Bip][Bip]-OH), the “MIC MRSA ATCC BAA-1556” value in experiment [1] (ATCC BAA-1556) was 50 µg/mL (≈ 43.2 µM). The “MIC S. aureus ATCC 29213” value in the experiment on S. aureus ATCC 29213 (ATCC 29213) was 50 µg/mL (≈ 43.2 µM). The “MIC P. aeruginosa ATCC 27883” value in experiment [2] (ATCC 27883) was >100 µg/mL. Also, the “MIC E. coli ATCC 25922” value in experiment [3] (ATCC 25922) was >100 µg/mL.
With `N=C(N)NCCC[C@@H]1NC(=O)[C@H](CCCNC(=N)N)NC(=O)[C@H](Cc2c[nH]c3ccccc23)NC(=O)[C@H](Cc2c[nH]c3ccccc23)NC(=O)[C@H](Cc2c[nH]c3ccccc23)NC(=O)[C@H](Cc2c[nH]c3ccccc23)NC(=O)[C@H](Cc2c[nH]c3ccccc23)NC(=O)[C@H](Cc2c[nH]c3ccccc23)NC(=O)[C@H](Cc2c[nH]c3ccccc23)NC(=O)[C@H](CCCNC(=N)N)NC1=O` [IFX-306] (cyclo(RRRWWWWWWW)), the “MIC P. aeruginosa ATCC 27883” value in experiment [2] (Table 19) was 256 µg/mL (≈ 144 µM).
In the case of “c[Arg-Arg-Arg-Arg-7metW-7metW-7metW-7metW] [IFX-042]”, in experiment [1], the “MIC MRSA ATCC BAA-1556” value stood at 6.2 µg/mL. For the same molecule, the “MIC S. aureus ATCC 29213” value in the experiment on S. aureus ATCC 29213 was 6.1 µg/mL. In experiment [2], the “MIC P. aeruginosa ATCC 27883” value amounted to 50 µg/mL. In experiment [3], the “MIC E. coli ATCC 25922” value came out at 25 µg/mL.
Turning to “c[PEG1-Arg-Arg-Arg-Arg-Arg-PEG1-Dip-Dip-Dip] [IFX-050-1]”, the “MIC MRSA ATCC BAA-1556” value in experiment [1] stood at 32 µg/mL. For the same molecule, the “MIC S. aureus ATCC 29213” value against S. aureus ATCC 29213 stood at 16 µg/mL. Further, in experiment [2], the “MIC P. aeruginosa ATCC 27883” value came out at 128 µg/mL. For the same molecule, the “MIC E. coli ATCC 25922” value in experiment [3] came out at 32 µg/mL.
Consider `N=C(N)NCCC[C@H]1NC(=O)[C@H](Cc2c[nH]c3ccccc23)NC(=O)[C@H](Cc2c[nH]c3ccccc23)NC(=O)[C@H](Cc2c[nH]c3ccccc23)NC(=O)[C@H](Cc2c[nH]c3ccccc23)NC(=O)[C@@H](CCCNC(=N)N)NC(=O)[C@@H](CCCNC(=N)N)NC(=O)[C@@H](CCCNC(=N)N)NC1=O` [IFX-309] (cyclo([dR][dR][dR][dR]WWWW)), for which, in experiment [3] (ATCC 25922), the “MIC E. coli ATCC 25922” value came to 16 µg/mL (≈ 11.7 µM).
For “c[Arg-arg-PEG4-Arg-arg-Trp-naI-naI] [IFX-052]”, the “MIC MRSA ATCC BAA-1556” value in experiment [1] turned out to be 32 µg/mL. The “MIC S. aureus ATCC 29213” value with S. aureus ATCC 29213 turned out to be 32 µg/mL. Also, the “MIC P. aeruginosa ATCC 27883” value in experiment [2] was 128 µg/mL. In experiment [3], the “MIC E. coli ATCC 25922” value is 64 µg/mL.
In the case of `N=C(N)NCCC[C@H](NC(=O)[C@H](CCCNC(=N)N)NC(=O)[C@H](CCCNC(=N)N)NC(=O)[C@@H](N)CCCNC(=N)N)C(=O)N[C@@H](Cc1ccc(-c2ccccc2)cc1)C(=O)N[C@@H](Cc1ccc(-c2ccccc2)cc1)C(=O)N[C@@H](Cc1ccc(-c2ccccc2)cc1)C(=O)N[C@@H](Cc1ccc(-c2ccccc2)cc1)C(=O)O` [IFX-004-1, NH2-Arg-Arg-Arg-Arg-Bip-Bip-Bip-Bip-OH] (H-RRRR[Bip][Bip][Bip][Bip]-OH), the “MIC MRSA ATCC BAA-1556” value in experiment [1] (ATCC BAA-1556) is >100 µg/mL. Also, the “MIC S. aureus ATCC 29213” value with S. aureus ATCC 29213 (ATCC 29213) was >100 µg/mL. For the same molecule, in experiment [2] (ATCC 27883), the “MIC P. aeruginosa ATCC 27883” value is >100 µg/mL. Besides, in experiment [3] (ATCC 25922), the “MIC E. coli ATCC 25922” value was >100 µg/mL.
As to `N=C(N)NCCC[C@@H]1NC(=O)[C@H](CCCNC(=N)N)NC(=O)[C@H](Cc2ccc(-c3ccccc3)cc2)NC(=O)[C@H](Cc2ccc(-c3ccccc3)cc2)NC(=O)[C@H](Cc2ccc(-c3ccccc3)cc2)NC(=O)[C@H](CCCNC(=N)N)NC1=O` [IFX-001, c[Arg-Arg-Arg-Bip-Bip-Bip]] (cyclo([Bip][Bip][Bip]RRR)), the “MIC MRSA ATCC BAA-1556” value in experiment [1] (ATCC BAA-1556) is 50 µg/mL (≈ 43.9 µM). Further, the “MIC S. aureus ATCC 29213” value against S. aureus ATCC 29213 (ATCC 29213) came to 50 µg/mL (≈ 43.9 µM). Moreover, the “MIC P. aeruginosa ATCC 27883” value in experiment [2] (ATCC 27883) is >100 µg/mL. In addition, the “MIC E. coli ATCC 25922” value in experiment [3] (ATCC 25922) is >100 µg/mL.
Take `N=C(N)NCCC[C@@H]1NC(=O)[C@H](CCCNC(=N)N)NC(=O)[C@H](CCCNC(=N)N)NC(=O)[C@H](Cc2ccc(-c3ccccc3)cc2)NC(=O)[C@H](Cc2ccc(-c3ccccc3)cc2)NC(=O)[C@H](Cc2ccc(-c3ccccc3)cc2)NC(=O)[C@H](Cc2ccc(-c3ccccc3)cc2)NC(=O)[C@H](CCCNC(=N)N)NC1=O` [IFX-004, c[Arg-Arg-Arg-Arg-Bip-Bip-Bip-Bip]] (cyclo([Bip][Bip][Bip][Bip]RRRR)): the “MIC MRSA ATCC BAA-1556” value in experiment [1] (ATCC BAA-1556) was >100 µg/mL. Besides, the “MIC S. aureus ATCC 29213” value with S. aureus ATCC 29213 (ATCC 29213) is 50 µg/mL (≈ 32.9 µM). The “MIC P. aeruginosa ATCC 27883” value in experiment [2] (ATCC 27883) is >100 µg/mL. The “MIC E. coli ATCC 25922” value in experiment [3] (ATCC 25922) is >100 µg/mL.
Regarding “c[Arg-Arg-Arg-Arg-5fW-5fW-5fW-5fW] [IFX-038]”, the “MIC MRSA ATCC BAA-1556” value in experiment [1] stood at 25 µg/mL. Besides, the “MIC S. aureus ATCC 29213” value against S. aureus ATCC 29213 was determined as 12.5 µg/mL. Besides, the “MIC P. aeruginosa ATCC 27883” value in experiment [2] stood at 100 µg/mL. Besides, the “MIC E. coli ATCC 25922” value in experiment [3] was 50 µg/mL.
